Data published in patent US12138256B2, “Treatment of cardiopulmonary disorders” (Bayer Aktiengesellschaft, priority 2021, dated 2024).

Assay: Thermal stability of the solid (90° C., 7 days, HPLC peak areas)
Type: physicochemical
Experimental: 0.3 mg of the test compound, e.g. comparative example 11 were solved in 0.1 ml dimethylsulfoxide and 0.4 ml acetonitrile. Then 1.0 ml water was added. For complete dissolution the HPLC vial was shaken and sonicated. This solution was immediately analyzed by HPLC (reference at t0). 0.3 mg of the test compound was weighed into another HPLC vial. The vial was capped and stored for 7 days in a heating block at 90° C.
After this time the vial was decapped and 0.1 ml dimethylsulfoxide and 0.4 ml acetonitrile were added to the stressed compound. Then 1.0 ml water was added. For complete dissolution the HPLC vial was shaken and sonicated. The sample was analyzed by HPLC (sample after 1 week). The peak areas in percentage are used for quantification.

Thermal stability, limited thermal stability:
O=C(O)CCCCN(CCc1ccccc1OCc1ccc(-c2nc3cc(OC(F)(F)F)ccc3o2)cc1)C1CCCc2nc(C(=O)O)ccc21 (single isomer, unassigned) [comparative example 8, 5-[(4-carboxybutyl){2-[2-({4-[5-(trifluoromethoxy)-1,3-benzoxazol-2-yl]benzyl}oxy)phenyl]ethyl}-amino]-5,6,7,8-tetrahydroquinoline-2-carboxylic acid]
O=C(O)c1ccc(CCN(CCc2ccccc2OCc2ccc(-c3nc4cc(C(F)(F)F)ccc4o3)cc2)C2CCCc3nc(C(=O)O)ccc32)cc1 (single isomer, unassigned) [comparative example 6, 5-([2-(4-carboxyphenyl)ethyl]{2-[2-({4-[5-(trifluoromethyl)-1,3-benzoxazol-2-yl]benzyl}oxy)phenyl]-ethyl}amino)-5,6,7,8-tetrahydroquinoline-2-carboxylic acid]
N#Cc1ccc2oc(-c3ccc(COc4ccccc4CCN(CCCCC(=O)O)C4CCCc5nc(C(=O)O)ccc54)cc3)nc2c1 (single isomer, unassigned) [comparative example 10, 5-{(4-carboxybutyl)[2-(2-{[4-(5-cyano-1,3-benzoxazol-2-yl)benzyl]oxy}phenyl)ethyl]amino}-5,6,7,8-tetrahydroquinoline-2-carboxylic acid]
O=C(O)c1ccc(CCN(CCc2ccccc2OCc2ccc(-c3nc4cc(OC(F)(F)F)ccc4o3)cc2)C2CCCc3nc(C(=O)O)ccc32)cc1 (single isomer, unassigned) [comparative example 9, 5-([2-(4-carboxyphenyl)ethyl]{2-[2-({4-[5-(trifluoromethoxy)-1,3-benzoxazol-2-yl]benzyl}oxy)-phenyl]ethyl}amino)-5,6,7,8-tetrahydroquinoline-2-carboxylic acid]
O=C(O)CCCCN(CCc1ccccc1OCc1ccc(-c2nc3cc(C(F)(F)F)ccc3o2)cc1)C1CCCc2nc(C(=O)O)ccc21 (single isomer, unassigned) [comparative example 7, 5-[(4-carboxybutyl)(2-[2-({4-[5-(trifluoromethyl)-1,3-benzoxazol-2-yl]benzyl}oxy)phenyl]ethyl)amino]-5,6,7,8-tetrahydroquinoline-2-carboxylic acid]
